Test results: PubChem BioAssay (NCI)
Several values for one entry are separate records, joined by “and”; a condition that tells them apart may be missing. Equal entries are not always repeated.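 Results reflect a 48-hour exposure of cells in 96-well plates to compound at five concentrations. GI50 = concentration required for 50% inhibition of growth. TGI: total growth inhibition.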

What was measured:
Assay in all cases: NCI-60 cell line screen, 48 h
HOP-18 NSCLC = tested on: HOP-18 NSCLC
SNB-78 CNS = tested on: SNB-78 CNS
LXFL 529 NSCLC = tested on: LXFL 529 NSCLC
M19-MEL melanoma = tested on: M19-MEL melanoma
KM20L2 colon = tested on: KM20L2 colon
RXF-631 renal = tested on: RXF-631 renal
MDA-N = tested on: MDA-N
XF 498 CNS = tested on: XF 498 CNS

N#Cc1ccc(Sc2nc3ccccc3[nH]2)cc1
TGI (HOP-18 NSCLC): > 100 µM | TGI (SNB-78 CNS): > 100 µM | TGI (LXFL 529 NSCLC): > 100 µM | TGI (M19-MEL melanoma): > 100 µM

CCOC(=O)C1(C)CCC(C(C(=O)O)C(=O)O)CC1=O (centres undefined)
TGI (KM20L2 colon): > 100 µM | TGI (RXF-631 renal): > 100 µM | TGI (HOP-18 NSCLC): > 100 µM | TGI (SNB-78 CNS): > 100 µM | TGI (LXFL 529 NSCLC): > 100 µM | TGI (M19-MEL melanoma): > 100 µM

CC(=O)O[C@H]1CC2C(C3CC[C@H](C(C)CCC(=O)O)[C@]31C)[C@H](OC(C)=O)C[C@@H]1CC3(CC[C@]21C)OOC1(CCC(C)CC1)OO3 (some centres undefined)
TGI (MDA-N): 19.9 µM and 15 µM

Nc1nc(=S)c2c(ncn2CCO)[nH]1
TGI (KM20L2 colon): > 100 µM | TGI (HOP-18 NSCLC): > 100 µM | TGI (SNB-78 CNS): > 100 µM | TGI (LXFL 529 NSCLC): > 100 µM | TGI (M19-MEL melanoma): > 100 µM

CCOC(=O)C1=C(NC)OCC1=O
TGI (KM20L2 colon): > 100 µM | TGI (RXF-631 renal): > 100 µM | TGI (XF 498 CNS): > 100 µM | TGI (SNB-78 CNS): > 100 µM | TGI (LXFL 529 NSCLC): > 100 µM | TGI (M19-MEL melanoma): > 100 µM

CCOC(=O)/C(=C\c1cccc(C)c1)C(C)=O
TGI (MDA-N): 31.4 µM

c1ccc(C(c2ccccc2)c2ccccn2)cc1
TGI (KM20L2 colon): > 100 µM | TGI (RXF-631 renal): > 100 µM | TGI (XF 498 CNS): > 100 µM | TGI (HOP-18 NSCLC): > 100 µM | TGI (SNB-78 CNS): > 100 µM | TGI (M19-MEL melanoma): > 100 µM

COc1cc(OC)c(OC)cc1/C=C/c1nc2ccccc2s1
TGI (MDA-N): > 100 µM

NC(N)=NCCCC(NCc1c2ccccc2nc2ccccc12)C(=O)O (centres undefined)
TGI (KM20L2 colon): 86.7 µM | TGI (MDA-N): > 100 µM | TGI (LXFL 529 NSCLC): > 100 µM | TGI (M19-MEL melanoma): > 100 µM

Cn1c(=O)c2nc3sc4c(n3c2n(C)c1=O)C(=O)c1ccccc1C4=O
TGI (KM20L2 colon): > 100 µM | TGI (RXF-631 renal): > 100 µM | TGI (MDA-N): > 100 µM | TGI (XF 498 CNS): > 100 µM | TGI (HOP-18 NSCLC): > 100 µM | TGI (SNB-78 CNS): > 100 µM | TGI (LXFL 529 NSCLC): > 100 µM | TGI (M19-MEL melanoma): > 100 µM

COc1cc(/C=C/c2csnn2)cc(OC)c1OC
TGI (XF 498 CNS): > 100 µM | TGI (HOP-18 NSCLC): > 100 µM | TGI (SNB-78 CNS): > 100 µM | TGI (LXFL 529 NSCLC): > 100 µM | TGI (M19-MEL melanoma): > 100 µM

O=C1NC(=O)C2C(=O)NC(=O)C1C2Cc1ccco1 (centres undefined)
TGI (KM20L2 colon): > 100 µM | TGI (XF 498 CNS): > 100 µM | TGI (SNB-78 CNS): > 100 µM | TGI (M19-MEL melanoma): > 100 µM

CC(C)Cc1ccc(C(C)/C=C2\CCC(CN(C)C)C2=O)cc1 (centres undefined)
TGI (KM20L2 colon): 51.4 µM | TGI (MDA-N): 22.2 µM | TGI (XF 498 CNS): 36.5 µM | TGI (HOP-18 NSCLC): 32.2 µM | TGI (SNB-78 CNS): 36.3 µM | TGI (LXFL 529 NSCLC): 22.6 µM | TGI (M19-MEL melanoma): 37.5 µM

CCCC(=O)CC(C)C(=O)C(=O)NC12CC3CC(CC(C3)C1)C2 (centres undefined)
TGI (KM20L2 colon): > 100 µM | TGI (XF 498 CNS): > 100 µM | TGI (HOP-18 NSCLC): > 100 µM | TGI (SNB-78 CNS): > 100 µM

N#CC1CC(c2ccccc2)Nc2cc(Cl)ccc2N1 (centres undefined)
TGI (KM20L2 colon): > 100 µM | TGI (XF 498 CNS): 92 µM | TGI (HOP-18 NSCLC): > 100 µM | TGI (SNB-78 CNS): > 100 µM | TGI (LXFL 529 NSCLC): > 100 µM | TGI (M19-MEL melanoma): > 100 µM

COC12C(COC(=O)NCCO)C3=C(C(=O)C(C)=C(N)C3=O)N1CC1NC12 (centres undefined)
TGI (MDA-N): > 264 µM

COc1ccc(/C=C2\C(=O)N(NC(C)=O)c3ccccc32)cc1
TGI (KM20L2 colon): > 100 µM | TGI (RXF-631 renal): > 100 µM | TGI (XF 498 CNS): > 100 µM | TGI (HOP-18 NSCLC): > 100 µM | TGI (SNB-78 CNS): > 100 µM | TGI (M19-MEL melanoma): > 100 µM

O=C(O)CN(CCN(CC(=O)O)CC(=O)O)CC(=O)O.[Mn+2]
GI50 (MDA-N): > 100 µM | TGI (MDA-N): > 100 µM

COc1cc(/C=C2\NC(=O)C(Cc3cc(OC)c(OC)c(C)c3OC)N(C(C)=O)C2=O)c(OC)c(C)c1OC (centres undefined)
TGI (KM20L2 colon): > 100 µM | TGI (HOP-18 NSCLC): 99.6 µM | TGI (LXFL 529 NSCLC): > 100 µM | TGI (M19-MEL melanoma): > 100 µM

O=C1N[C@@H]2CCCC[C@@H]2C12CCCCC2
TGI (KM20L2 colon): > 100 µM | TGI (RXF-631 renal): > 100 µM | TGI (XF 498 CNS): > 100 µM | TGI (HOP-18 NSCLC): > 100 µM | TGI (SNB-78 CNS): > 100 µM | TGI (LXFL 529 NSCLC): > 100 µM | TGI (M19-MEL melanoma): > 100 µM

CC(=O)OCC(=O)[C@@]1(O)CC[C@H]2[C@@H]3C[C@H](C)C4=CC(=O)C=C[C@]4(C)[C@@]3(F)[C@@H](O)C[C@@]21C
TGI (KM20L2 colon): > 100 µM | TGI (RXF-631 renal): > 100 µM | TGI (XF 498 CNS): > 100 µM | TGI (SNB-78 CNS): > 100 µM | TGI (M19-MEL melanoma): > 100 µM

CC12OC(=O)C(C#N)C1(C)C1C(=O)CCCC12 (centres undefined)
TGI (KM20L2 colon): > 100 µM | TGI (XF 498 CNS): > 100 µM | TGI (HOP-18 NSCLC): > 100 µM | TGI (LXFL 529 NSCLC): > 100 µM | TGI (M19-MEL melanoma): > 100 µM

Cc1ccccc1C(CCCO)C(=O)O (centres undefined)
TGI (XF 498 CNS): > 100 µM | TGI (SNB-78 CNS): > 100 µM | TGI (LXFL 529 NSCLC): > 100 µM | TGI (M19-MEL melanoma): > 100 µM

CC1NOC(=O)C1N=Nc1ccc(Cl)cc1Cl (centres undefined)
TGI (KM20L2 colon): > 100 µM | TGI (RXF-631 renal): > 100 µM | TGI (XF 498 CNS): 45 µM | TGI (HOP-18 NSCLC): 50.4 µM | TGI (SNB-78 CNS): 69.2 µM | TGI (LXFL 529 NSCLC): 45.3 µM | TGI (M19-MEL melanoma): 64.3 µM

CCc1cccc(CC)c1NC(=O)/C(Cl)=C(/Cl)C(=O)O
TGI (KM20L2 colon): > 71 µM | TGI (XF 498 CNS): 46.5 µM | TGI (HOP-18 NSCLC): 49.5 µM | TGI (SNB-78 CNS): 65.8 µM | TGI (LXFL 529 NSCLC): 20.9 µM | TGI (M19-MEL melanoma): 46.5 µM

CC(=O)[CH-]C(=O)c1ccccc1.[C-]#[O+].[C-]#[O+].[Ir]
GI50 (HOP-18 NSCLC): > 100 µM | TGI (HOP-18 NSCLC): > 100 µM | GI50 (M19-MEL melanoma): > 100 µM | TGI (M19-MEL melanoma): > 100 µM

O=[N+]([O-])c1ccc(-c2ccc(C3=Nn4c(CNc5ccccc5Cl)nnc4SC3)o2)cc1
TGI (KM20L2 colon): > 100 µM | TGI (XF 498 CNS): > 100 µM | TGI (SNB-78 CNS): > 100 µM | TGI (LXFL 529 NSCLC): > 100 µM | TGI (M19-MEL melanoma): > 100 µM

OC(c1ccccc1Br)(c1ccccc1Br)C(F)(F)F
TGI (KM20L2 colon): 52.3 µM | TGI (XF 498 CNS): 38.2 µM | TGI (HOP-18 NSCLC): > 100 µM | TGI (LXFL 529 NSCLC): > 100 µM | TGI (M19-MEL melanoma): 74 µM

[O]=[V]([OH])([OH])[OH]
GI50 (MDA-N): 94.6 µM | TGI (MDA-N): > 100 µM

COc1ccc2nc(NC(=O)C(=O)CC(=O)c3ccc([N+](=O)[O-])cc3)sc2c1
TGI (KM20L2 colon): > 100 µM | TGI (RXF-631 renal): > 100 µM | TGI (XF 498 CNS): > 100 µM | TGI (LXFL 529 NSCLC): > 100 µM | TGI (M19-MEL melanoma): > 100 µM

Cc1ccc(S(=O)(=O)NCCCCC(N)C(=O)O)cc1 (centres undefined)
TGI (MDA-N): > 100 µM

CC(=O)Nc1ccc(C2CC(c3ccc([N+](=O)[O-])cc3)=Nc3ccccc3S2=O)cc1 (centres undefined)
TGI (KM20L2 colon): 57.5 µM | TGI (XF 498 CNS): 55.8 µM | TGI (HOP-18 NSCLC): > 100 µM | TGI (LXFL 529 NSCLC): 34.6 µM | TGI (M19-MEL melanoma): 38 µM

OCC1CC[N-]CC1.OCC1CC[N-]CC1.[Cl][Pt+2]([Cl])([Cl])[Cl]
GI50 (MDA-N): 28.9 µM

O=C1C2C3C=CC(C2C(=O)N1CO)C1C2C(=O)N(CO)C(=O)C2C31 (centres undefined)
TGI (KM20L2 colon): > 31.6 µM | TGI (RXF-631 renal): > 100 µM | TGI (XF 498 CNS): > 100 µM | TGI (HOP-18 NSCLC): 76.7 µM | TGI (SNB-78 CNS): > 100 µM | TGI (LXFL 529 NSCLC): > 100 µM | TGI (M19-MEL melanoma): > 100 µM

C[C@H](C(=O)O)C(=O)NC(=O)N(Cc1ccccc1)N=O
TGI (KM20L2 colon): > 100 µM | TGI (XF 498 CNS): > 100 µM | TGI (HOP-18 NSCLC): 0.0783 µM | TGI (SNB-78 CNS): > 100 µM | TGI (LXFL 529 NSCLC): > 100 µM | TGI (M19-MEL melanoma): > 100 µM

CCO/C=C1\SC(=S)N(c2ccc(OCC)cc2)C1=O
TGI (MDA-N): > 100 µM

CC(=O)Oc1c(C(=O)[O-])cc(C(C)C)cc1C(C)C.CC(=O)Oc1c(C(=O)[O-])cc(C(C)C)cc1C(C)C.CC(=O)Oc1c(C(=O)[O-])cc(C(C)C)cc1C(C)C.CC(=O)Oc1c(C(=O)[O-])cc(C(C)C)cc1C(C)C.[Cu+2].[Cu+2]
GI50 (MDA-N): 18.8 µM | TGI (MDA-N): 33.4 µM

O=C(CCCC(=O)Nc1ccc(Cl)cc1Cl)CC(=O)c1ccc2ccccc2c1
TGI (KM20L2 colon): > 100 µM | TGI (RXF-631 renal): > 100 µM | TGI (HOP-18 NSCLC): > 100 µM | TGI (SNB-78 CNS): > 100 µM | TGI (LXFL 529 NSCLC): > 100 µM | TGI (M19-MEL melanoma): > 100 µM

COc1ccc2c(C(=O)O)cc3ccccc3c2c1OC
TGI (KM20L2 colon): 58.1 µM | TGI (XF 498 CNS): 29.2 µM | TGI (HOP-18 NSCLC): 28.9 µM | TGI (SNB-78 CNS): 33.4 µM | TGI (LXFL 529 NSCLC): 30.9 µM | TGI (M19-MEL melanoma): 61 µM

CCCCCC/C=C\CCCCCCCCC(=O)c1cccc(OC)c1OC
TGI (MDA-N): > 100 µM

CCCCCCCCCCCC[C@@H](O)[C@H]1CC[C@H]([C@H](O)CC[C@H](O)[C@@H]2CC[C@@H](CCCCCCCC3=C[C@H](C)OC3=O)O2)O1
GI50 (MDA-N): > 50 µM | TGI (MDA-N): > 50 µM
